Article PMC4418665, “Cyclization of the Urokinase Receptor-Derived Ser-Arg-Ser-Arg-Tyr Peptide Generates a Potent Inhibitor of Trans-Endothelial Migration of Monocytes” (PLoS ONE, 2015)
Peptide text beside a SMILES is read from it.

Tests used:
RBL-2H3/ETFR cells = assay: RBL-2H3/ETFR cell proliferation, xCELLigence; format: cell-based, rat; settings: 10 μM peptide, up to 90 hours, medium replaced every 24 hours, quadruplicate
[1] = system: THP-1 cells crossing HUVEC monolayer; assay: Trans-endothelial migration assay, xCELLigence RTCA; format: cell-based, human; settings: 10 nM peptide, 10% FBS, monitored 10 hours, Cell Index, quadruplicate
Excerpt: Diapedesis of leukocytes plays a key role in the pathogenesis of inflammatory diseases and migration of monocytes from the blood into the sub-endothelial space is one of the earliest events. We investigated the effects of [SRSRY] on the number and morphology of THP-1 seeded to an endothelial monolayer. […] (Fig 5A). To examine the changes in morphology in more detail and quantify monocytes interacting with endothelial monolayer, we performed a subset of experiments using GFP-tagged THP-1, labeling co-cultures for F-actin and recording images by a confocal microscope. […] To further ascertain if [SRSRY] reduces trans-endothelial migration of monocytes, the ability of THP-1 cells to cross an endothelial monolayer was analyzed using the xCELLigence RTCA technology as previously described. […] At this time, reduction of impedance values, due to invading cells that interrupt monolayers was monitored in real-time for 10 hours. […]
Fig 5 [SRSRY] prevents trans-endothelial migration of THP-1 cells. […] Representative images of co-cultures analyzed by phase contrast microscopy at 100x with Scale bar: 50 μm (A) or stained with rhodamine- phalloidin and recorded by a confocal microscope (z-series with 0.25 μm intervals) at 630x with Scale bar: 10 μm (B). […] Fluorescent THP-1 cells which were adherent on the endothelial monolayer were counted on 10 fields/slide at 200x magnification. […]

N=C(N)NCCC[C@@H]1NC(=O)[C@H](CO)NC(=O)[C@H](Cc2ccc(O)cc2)NC(=O)[C@H](CCCNC(=N)N)NC(=O)[C@H](CO)NC1=O [[SRSRY], [Ser-Arg-Ser-Arg-Tyr]] (cyclo(RSRYS))
RBL-2H3/ETFR cell growth (RBL-2H3/ETFR cells): did not modify cell growth up to 90 hours
reduction of THP-1 trans-endothelial migration [1]: 35%
